Test system: A375 multi-cell spheroids with HUVEC/MSC, viability
Assay: Anticancer human tumor A375 cell line growth inhibition [GQUAD];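 also: spheroids exposed to compounds for seven days before readout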
Settings: for IC50: curve of first compound; for viability, T/C: stronger effect = lower value
How it was run: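 Tumor cells were grown as complex spheroids with HUVEC endothelial cells and mesenchymal stem cells as stroma. G-quadruplex stabilizers were combined with targeted agents over half-log dilutions from near the clinical Cmax, or from 10 microM.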

## CCc1c2c(nc3ccc(O)cc13)-c1cc3c(c(=O)n1C2)COC(=O)[C@]3(O)CC + Cc1[nH]c2ccc(F)cc2c1-c1nc2c3cccnc3c3ncccc3c2[nH]1
Second compound 0.0316 µM
  IC50: < 0.999 nM
Second compound 0.1 µM
  IC50: < 0.999 nM
Second compound 0.316 µM
  IC50: < 0.999 nM
Second compound 1 µM
  IC50: < 0.999 nM
Second compound 3.16 µM
  IC50: < 0.999 nM
Second compound 10 µM
  IC50: < 0.999 nM
Second compound 0.0316 µM, first compound 0.000999 µM
  viability, T/C: 46%
Second compound 0.0316 µM, first compound 0.00316 µM
  viability, T/C: 20%
Second compound 0.0316 µM, first compound 0.00999 µM
  viability, T/C: 16.8%
Second compound 0.0316 µM, first compound 0.0316 µM
  viability, T/C: 19.7%
Second compound 0.0316 µM, first compound 0.0999 µM
  viability, T/C: 4.81%
Second compound 0.0316 µM, first compound 0.316 µM
  viability, T/C: 0.52%
Second compound 0.1 µM, first compound 0.000999 µM
  viability, T/C: 50.3%
Second compound 0.1 µM, first compound 0.00316 µM
  viability, T/C: 20.4%
Second compound 0.1 µM, first compound 0.00999 µM
  viability, T/C: 14.7%
Second compound 0.1 µM, first compound 0.0316 µM
  viability, T/C: 16.9%
Second compound 0.1 µM, first compound 0.0999 µM
  viability, T/C: 5.44%
Second compound 0.1 µM, first compound 0.316 µM
  viability, T/C: 0.54%
Second compound 0.316 µM, first compound 0.000999 µM
  viability, T/C: 47.8%
Second compound 0.316 µM, first compound 0.00316 µM
  viability, T/C: 18.3%
Second compound 0.316 µM, first compound 0.00999 µM
  viability, T/C: 15.2%
Second compound 0.316 µM, first compound 0.0316 µM
  viability, T/C: 19.5%
Second compound 0.316 µM, first compound 0.0999 µM
  viability, T/C: 5.75%
Second compound 0.316 µM, first compound 0.316 µM
  viability, T/C: 0.54%
Second compound 1 µM, first compound 0.000999 µM
  viability, T/C: 41.1%
Second compound 1 µM, first compound 0.00316 µM
  viability, T/C: 20.4%
Second compound 1 µM, first compound 0.00999 µM
  viability, T/C: 18.4%
Second compound 1 µM, first compound 0.0316 µM
  viability, T/C: 16.4%
Second compound 1 µM, first compound 0.0999 µM
  viability, T/C: 5.26%
Second compound 1 µM, first compound 0.316 µM
  viability, T/C: 0.53%
Second compound 3.16 µM, first compound 0.000999 µM
  viability, T/C: 32%
Second compound 3.16 µM, first compound 0.00316 µM
  viability, T/C: 20.9%
Second compound 3.16 µM, first compound 0.00999 µM
  viability, T/C: 17.6%
Second compound 3.16 µM, first compound 0.0316 µM
  viability, T/C: 11%
Second compound 3.16 µM, first compound 0.0999 µM
  viability, T/C: 0.47%
Second compound 3.16 µM, first compound 0.316 µM
  viability, T/C: 0.17%
Second compound 10 µM, first compound 0.000999 µM
  viability, T/C: 39.4%
Second compound 10 µM, first compound 0.00316 µM
  viability, T/C: 17.6%
Second compound 10 µM, first compound 0.00999 µM
  viability, T/C: 17.1%
Second compound 10 µM, first compound 0.0316 µM
  viability, T/C: 14.1%
Second compound 10 µM, first compound 0.0999 µM
  viability, T/C: 1.7%
Second compound 10 µM, first compound 0.316 µM
  viability, T/C: 0.25%

Source: PubChem BioAssay AID2060485 (Molecular Pharmacology Branch, DTP, NCI, 2025)
